From PubChem BioAssay (NCI)
“And” between values parts separate entries of the source, which are not always exact repeats. Equal entries are not always repeated.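 Results reflect a 48-hour exposure of cells in 96-well plates to compound at five concentrations. GI50 = concentration required for 50% inhibition of growth. The concentration for full growth arrest is given as TGI.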 Where a SMILES comes first, the peptide text is derived from it.

System: MDA-MB-468 breast
Test: NCI-60 cell line screen, 48 h

Structure (SMILES)	GI50	TGI
O=C1C=CC2(NN=C(c3ccccc3)N2c2ccccc2)c2cccc(O)c21 (stereo not given)	1920 nM	9090 nM
CCC(C)C1NC(=O)C(CCCCN)NC(=O)C(CCCCN)NC(=O)C(CC(C)C)NC(=O)C(CCCCN)NC(=O)C(C(C)CC)NC(=O)C(C(C)C)NC(=O)C(C(C)CC)NC(=O)C(CCCCN)NC(=O)C(CCCCN)NC(=O)C(C)NC(=O)C(CCCCN)NC(=O)C(CC(C)C)NC1=O (stereo not given) (cyclo(AKKIVIKLKKILK); configuration not given here)	564 nM	2300 nM
COC(=O)[C@]12CC[C@@H](C)[C@H](C)[C@@H]1C1=CC[C@@H]3[C@@]4(C)C[C@@H](OC(C)=O)[C@H](O)[C@@](C)(CO)[C@@H]4[C@H](O)C[C@@]3(C)[C@]1(C)CC2	8550 nM	22800 nM
C#CCNCCCN1C(=O)c2ccc3c4c(ccc(c24)C1=O)C(=O)N(CCCNCC#C)C3=O	129 nM	308 nM
COc1cc2nccc(Oc3ccc(NC(=O)C4(C(=O)Nc5ccc(F)cc5)CC4)cc3)c2cc1OC(=O)c1ccc(N)cc1	3990 nM	> 100000 nM
COc1ccc2nc3c(n2c1)C(=O)C(=O)c1ccccc1-3	2180 nM	5630 nM
CC(=O)/C(=C\c1c(-c2ccccc2)[nH]c2ccccc12)S(C)(=O)=O	1790 nM	8100 nM
CCCCCCCCn1ccc2cc(NC(=O)Cn3cc(CN4CCN(CC)CC4)nn3)ccc21	1530 nM	3040 nM
CC(C)(C(=O)NCC(F)(F)C(F)(F)F)C(=O)N[C@@H]1C(=O)Nc2ccccc2-c2ccccc21	12700 nM	73000 nM
O=C1NC(=NCc2c(Cl)cccc2Cl)S/C1=C\c1ccc2ncccc2c1	6240 nM	> 25000 nM
C#CC#CC#CC#CC#CC#CC#CC#CC[C@@H]1OC[C@H](COC(=O)O[C@@H](C(=O)O[C@H]2C[C@@]3(O)[C@@H](OC(=O)c4ccccc4)[C@@H]4[C@]5(OC(C)=O)CO[C@@H]5C[C@H](O)[C@@]4(C)C(=O)[C@H](OC(C)=O)C(=C2C)C3(C)C)[C@@H](NC(=O)c2ccccc2)c2ccccc2)O1	439 nM	1590 nM
CCCCCCCCCCCCCCCC(=O)Nc1ccn([C@@H]2O[C@H](CO)[C@@H](O)[C@@H]2C#N)c(=O)n1	48700 nM	> 100000 nM
Fc1ccc(-c2ncn(C3CCNCC3)c2-c2ccnc(Oc3cccc(C(F)(F)F)c3)n2)cc1	1570 nM	5310 nM
Cn1cc(C2=C(n3ccc4ccccc43)C(=O)NC2=O)c2ccccc21	> 25000 nM	> 25000 nM
CCNCCNc1cc(-c2ccc(Cl)c(Cl)c2)c(C#N)c2nc3ccccc3n12	1140 nM	2520 nM
CCNC(=O)N1CCc2c(Cl)c3c(c(OC)c2[C@@H]1[C@H]1OCc2c1ccc(OC)c2OC)OCCO3	2650 nM	> 100000 nM
O=S(=O)(Nc1ccc2ccccc2c1)N1CCCCC1	2810 nM	10300 nM
CCOc1ccccc1C(=O)/C=C/c1cc2ccccc2[nH]c1=O	162 nM	1630 nM

Structure (SMILES)	GI50	TGI
COC(=O)N[C@H]1C=C[C@@H]2/C=C(C)/C=C/[C@@H](C)[C@H]([C@H](C)[C@H](O)[C@@H](C)NC(C)=O)OC(=O)/C=C/C=C(C)\C=C\[C@]2(C)C1	4.32 nM and 4.53 nM	> 45300 nM
O=S(=O)(Nc1cc(F)cc(F)c1)c1ccc(-c2cnc(C3CC3)o2)cc1	1370 nM	17900 nM
COc1ccc(/C=C(/C(=O)N2CCCCC2)c2cc(OC)c(OC)c(OC)c2)cc1	498 nM	> 100000 nM
O=C(Nc1ccccc1C(=O)N/N=C(\c1ccccc1)c1ccccn1)c1ccccc1	338 nM	2380 nM
CCCCCN1C(=O)/C(=c2\sc3n(c2=O)C2C(NN=3)N(CC)C(=O)N2CC)c2ccccc21 (stereo not given)	369 nM	2000 nM
Cn1cc(-c2nc(N)nnc2-c2c[nH]c3ccccc23)c2cc(Br)ccc21	342 nM	2040 nM
Cn1cc(-c2csc(-c3c[nH]c4ccccc34)n2)c2cccnc21	915 nM	4180 nM
COc1ccc(/C=C/C(=O)Nc2cc(/C=C\c3cc(OC)c(OC)c(OC)c3)cc(OC)c2OC)cc1OC	1740 nM	7520 nM
NS(=O)(=O)c1ccc(N=Nc2c(O)[nH]c3ccc(Cl)cc23)cc1	> 20100 nM	> 25000 nM
C#CC(F)(F)[C@]1(O)CC[C@H]2[C@@H]3CCC4=CC(=O)CCC4=C3[C@@H](c3ccc(C4CC4)cc3)C[C@@]21C	121 nM and 265 nM	438 nM and 1520 nM
COc1cc(-c2cc(-c3nc4ccc(F)cc4[nH]3)[nH]n2)cc(OC)c1OC	1560 nM	9670 nM
Cc1cccc(-n2cnc3cc(C(=O)N4CCCCC4)ccc32)c1	18600 nM	> 100000 nM
COc1ccc(C(O)c2cc3c(N)c(C(=O)Nc4ccccc4)sc3nc2C)cc1 (stereo not given)	29.8 nM	> 100000 nM
C=C(C)[C@@H]1CC[C@]2(C(N)=O)CC[C@]3(C)[C@H](CC[C@@H]4[C@@]5(C)C/C(=C/c6cccnc6)C(=O)C(C)(C)[C@@H]5CC[C@]43C)[C@@H]12	3500 nM	40500 nM
CCCCCCC(O)(c1ccc(F)cc1)C(CN1CCOCC1)c1ccccc1 (stereo not given)	4930 nM	18600 nM
O=Cc1cn(Cc2ccccc2)c2ccccc12	174 nM	469 nM
COc1ccc(CCc2nc3cc(-c4c(C)noc4C)ccc3n2CCN2CCOCC2)cc1	8780 nM	> 100000 nM
